Measured values: PMC7794397, “Curbing gastrointestinal infections by defensin fragment modifications without harming commensal microbiota” (Communications Biology, 2021)
Converted amounts (≈) assume the structure as drawn. Read-outs that look alike come from different tables or passages of the source. Residues, ends and D or L forms follow the SMILES beside them. *: point of attachment. Palmitoyl = CCCCCCCCCCCCCCCC(=O)*; AEEA = NCCOCCOCC(=O)O

Legend:
[1] = tested on: S. aureus ATCC25923; format: cell-based
Method: (§1) After incubation at 37 °C and 150 rpm for 1–120 min, a sample of 50 µl was taken from the suspension and added to 50 µl of a 0.05% (v/v) sodium polyanethol sulfonate (Sigma-Aldrich) solution, which neutralizes remaining peptide activity, and plated on LB agar to determine the number of viable bacteria.

[2] = tested on: P. aeruginosa PAO1; format: cell-based
Method: as §1

[3] = tested on: E. faecium DSM2918 VRE; conditions: DSM2918, 2 h
Method: (§2) Bactericidal activity was assessed by broth microdilution assay. Log-phase bacteria were collected by centrifugation (2500 rpm, 10 min, 4 °C), washed twice with 10 mM sodium phosphate buffer containing 1% (w/v) TSB and the optical density at 600 nm was adjusted to 0.1. Approximately 5 × 10^5 CFU/ml bacteria were incubated with serial peptide concentrations (1.17–150 µM) in a final volume of 100 µl in 10 mM sodium phosphate buffer containing 1% (w/v) TSB for 2 h at 37 °C. After incubation, 100 µl of 6% TSB (w/v) were added and absorbance was measured at 600 nm (Tecan, Switzerland) and monitored for 18 h. Afterward, 100 µl per well were plated on LB agar to determine the numbers of viable bacteria microbiologically. Bactericidal activity is expressed as the LC99.9, the lowest concentration that killed ≥99.9 % of bacteria.

[4] = tested on: E. coli 6940 3-MRGN; conditions: 2 h
Method: as §2

[5] = tested on: P. aeruginosa DSM1117 4-MRGN; conditions: DSM1117, 2 h
Method: as §2

[6] = tested on: A. baumannii DSM30007 4-MRGN
Method: as §2

[7] = tested on: S. aureus DSM20213 MRSA; conditions: DSM20213, 2 h
Method: as §2

[8] = tested on: S. Typhimurium DSM554; conditions: for Fold change in MIC: relative to MIC of first passage, Mean
Method: Development of resistance to the peptides was assessed with S. aureus and S. Typhimurium. […] Bacteria were cultured overnight at 37 °C at 150 rpm in TSB. Bacteria were washed twice with 10 mM sodium phosphate buffer containing 1% (w/v) TSB. […] After incubation, 100 µl of 6% TSB (w/v) was added and plates incubated in a humidified atmosphere for 21 h at 37 °C and 150 rpm.
The MIC, the lowest concentration of peptide/antibiotic that caused a lack of visible bacterial growth, was determined for each bacterial species. […] This was repeated for 25 passages.

[9] = tested on: S. Typhimurium; format: cell-based; conditions: radial diffusion assay
Method: Antimicrobial activity was analyzed by radial diffusion assay. Log-phase bacteria were cultivated for up to 18 h in TSB (TSB, Becton Dickinson, USA), washed and diluted to 4 × 10^6 CFU in 10 ml agar. Bacteria were incubated in 10 ml of 10 mM sodium phosphate, pH 7.4, containing 0.3 mg/ml of TSB powder and 1% (w/v) low EEO-agarose (AppliChem). 1 µg of each lipopeptide was pipetted into punched wells in a final volume of 4 µl and diffused into the gel for 3 h at 37 °C. After that, a nutrient-rich gel with 6% TSB (w/v) and 1% agarose in 10 mM sodium phosphate buffer was poured on top of the first gel and incubated for up to 24 h at 37 °C. Then the diameter of inhibition zones was measured.

CCCCCCCCCCCCCCCC(=O)NCCOCCOCC(=O)N[C@@H](CCCNC(=N)N)C(=O)NCC(=O)N[C@@H](CCCCN)C(=O)N[C@@H](C)C(=O)N[C@@H](CCCCN)C(=O)N[C@@H](CS)C(=O)N[C@@H](CS)C(=O)N[C@@H](CCCCN)C(=O)O [Pam-3] ({Palmitoyl-AEEA}-RGKAKCCK-OH; C-terminus assumed)
time to eradication to the level of detection ([1]; 9.38 µM Pam-3): 30 min | time to killing of more than 90% of bacteria ([1]; 9.38 µM Pam-3): ≤ 15 min | MIC ([1]; ATCC25923): 9.38 µM (≈ 12 µg/mL) | time to eradication to the level of detection ([2]; 9.38 µM Pam-3): 2 min | time to killing of more than 90% of bacteria ([2]; 9.38 µM Pam-3): ≤ 1 min | MIC ([2]; PAO1): 9.38 µM (≈ 12 µg/mL) | LC99.9 [3]: 9.38 (4.87-9.38) μM | LC99.9 [4]: 9.38 µM | LC99.9 [5]: 9.38 µM | growth inhibition of colistin- and tigecycline-resistant isolate (in words) [6]: inhibited the growth | LC99.9 [7]: 9.38 (4.87-9.38) μM | Fold change in MIC ([8]; Day (passage) 0): 1.0 | Fold change in MIC ([8]; Day (passage) 1): 0.7 | Fold change in MIC ([8]; Day (passage) 2): 0.5 | Fold change in MIC ([8]; Day (passage) 3): 0.7 | Fold change in MIC ([8]; Day (passage) 4): 0.7 | Fold change in MIC ([8]; Day (passage) 5): 0.7 | Fold change in MIC ([8]; Day (passage) 6): 0.7 | Fold change in MIC ([8]; Day (passage) 7): 0.8 | Fold change in MIC ([8]; Day (passage) 8): 0.7 | Fold change in MIC ([8]; Day (passage) 9): 0.7 | Fold change in MIC ([8]; Day (passage) 10): 1.3 | Fold change in MIC ([8]; Day (passage) 11): 1.2 | Fold change in MIC ([8]; Day (passage) 12): 0.7 | Fold change in MIC ([8]; Day (passage) 13): 0.8 | Fold change in MIC ([8]; Day (passage) 14): 0.7 | Fold change in MIC ([8]; Day (passage) 15): 0.375 | Fold change in MIC ([8]; Day (passage) 16): 0.7 | Fold change in MIC ([8]; Day (passage) 17): 1.0 | Fold change in MIC ([8]; Day (passage) 18): 0.8 | Fold change in MIC ([8]; Day (passage) 19): 0.7 | Fold change in MIC ([8]; Day (passage) 20): 0.5 | Fold change in MIC ([8]; Day (passage) 21): 0.7 | Fold change in MIC ([8]; Day (passage) 22): 1.0 | Fold change in MIC ([8]; Day (passage) 23): 0.5 | Fold change in MIC ([8]; Day (passage) 24): 0.5 | Fold change in MIC ([8]; Day (passage) 25): 0.5 | emergence of resistant isolates (in words) ([8]; continuous serial passages): no resistant S. Typhimurium isolates emerged | inhibition of S. Typhimurium growth (in words) [9]: consistently inhibited
